Patent US4415584A, “3-Oxo-6-oxa-2-azatricyclo 5.4.2. unadecene-4-carboxylate” (Beecham Group Limited, priority 1978, dated 1983)

Tests used:
Kleb. aerogenes E70 [1] = test: Antibacterial Activity (Example 4), M.I.C.; type: cell-based, Klebsiella aerogenes; settings: compound alone
P. mirabilis C889 [2] = test: Antibacterial Activity (Example 4), M.I.C.; type: cell-based, Proteus mirabilis; settings: compound alone
Staph. aureus Russell [3] = test: Antibacterial Activity (Example 4), M.I.C.; type: cell-based; settings: compound alone
E. coli JT39 [4] = test: Antibacterial Activity (Example 4), M.I.C.; type: cell-based; settings: compound alone
mice = test: Toxicity, intraperitoneal administration to mice; type: in vivo; settings: dosages up to 750 mg/kg
Description: The compound of Example 1 (Isomer II) was administered intraperitoneally to mice.

E. coli JT39 [5] = test: Antibacterial Synergy (Example 13), MIC; type: cell-based
Description: (§1) The MIC's of ampicillin, the product of Example 10 (synergist) and ampicillin in the presence of the product of Example 10 were determined for a range of bacteria.

Proteus mirabilis C889 = test: Antibacterial Synergy (Example 13), MIC; type: cell-based
Description: as §1

Staph. aureus Russell [6] = test: Antibacterial Synergy (Example 13), MIC; type: cell-based
Description: as §1

Klebsiella aerogenes E70 = test: Antibacterial Synergy (Example 13), MIC; type: cell-based
Description: as §1

E. coli E96 (RTEM) = type: in vivo, mice infected with E. coli; settings: amoxycillin alone; printed × 2 (dosed at 1 and 5 hours after infection); mice
Description: Groups of mice were infected intraperitoneally with E. coli E96 (RTEM), and were then dosed at 1 and 5 hours after infection with amoxycillin or amoxycillin and the compound of Example 3.

P. mirabilis C889 [7] = test: Antibacterial Synergy (Example 4), MIC for ampicillin; type: cell-based, Proteus mirabilis; settings: ampicillin alone, no inhibitor
Kleb. aerogenes E70 [8] = test: as above; type: cell-based, Klebsiella aerogenes; settings: ampicillin alone, no inhibitor
Staph. aureus Russell [9] = test: as above; type: cell-based; settings: ampicillin alone, no inhibitor
E. coli JT39 [10] = test: as above; type: cell-based; settings: ampicillin alone, no inhibitor
[11] = ampicillin + synergist at 20 μg/ml

`O=C(OCc1ccccc1)C1CC=C2OC3CC(=O)N3C2C1` (single isomer, unassigned) [2 (Isomer II)] showed a M.I.C. (Kleb. aerogenes E70 [1]) greater than 500 µg/mL, a M.I.C. (P. mirabilis C889 [2]) greater than 500 µg/mL and a M.I.C. (Staph. aureus Russell [3]) of 62.5 µg/mL. It also gave a M.I.C. (E. coli JT39 [4]) greater than 500 µg/mL.
In the case of `COC(=O)C1CC=C2OC3CC(=O)N3C2C1` (single isomer, unassigned) [Example 1 (Isomer II)], the M.I.C. (Kleb. aerogenes E70 [1]) is reported as greater than 500 µg/mL, the “deaths after 10 days” value (mice) is reported as “no deaths were observed at dosages up to 750 mg/kg” and the M.I.C. (P. mirabilis C889 [2]) is reported as greater than 500 µg/mL. The M.I.C. (Staph. aureus Russell [3]) was 125 µg/mL.
`O=C(O)C1CC=C2O[C@@H]3CC(=O)N3C2C1` (single isomer, unassigned) [Example 10] was tested, and the MIC (E. coli JT39 [5]; Escherichia coli, synergist alone) was 16 µg/mL, the “MIC Ampicillin” value (E. coli JT39 [5]; [11]) was “inhibition” and the “MIC Ampicillin” value (Proteus mirabilis C889; [11]) was “inhibition”. For the same compound, the MIC (Proteus mirabilis C889; synergist alone) was 31.2 µg/mL, the MIC (Staph. aureus Russell [6]; Staphylococcus aureus, synergist alone) was 125 µg/mL and the “MIC Ampicillin” value (Klebsiella aerogenes E70; [11]) was “inhibition”. The MIC (Klebsiella aerogenes E70; synergist alone) was 31.2 µg/mL.
Compound `CC1(C)S[C@@H]2[C@H](NC(=O)[C@H](N)c3ccc(O)cc3)C(=O)N2[C@H]1C(=O)O` [Amoxycillin, amoxycillin] has a CD50 (E. coli E96 (RTEM)) of 1000 mg/kg.
`O=C(O)[C@H]1CC=C2O[C@@H]3CC(=O)N3[C@H]2C1` [Example 3, Sodium (1S, 5R)-Δ^7,8-3-oxo-6-oxa-2-azatricyclo-[5.4.0.0^2,5]undecene-10-carboxylate] was tested, and the M.I.C. (Kleb. aerogenes E70 [1]) was greater than 500 µg/mL, the M.I.C. (P. mirabilis C889 [2]) was greater than 500 µg/mL and the M.I.C. (Staph. aureus Russell [3]) was 125 µg/mL. The M.I.C. (E. coli JT39 [4]) was 250 µg/mL.
In the case of `CC1(C)S[C@@H]2[C@H](NC(=O)[C@H](N)c3ccccc3)C(=O)N2[C@H]1C(=O)O` [ampicillin, reference compound], the MIC for ampicillin (P. mirabilis C889 [7]) is reported as 2000 µg/mL, the “MIC Ampicillin” value (E. coli JT39 [5]; synergist concentration 0) is reported as greater than 2000 µg/mL and the “MIC Ampicillin” value (Proteus mirabilis C889; synergist concentration 0) is reported as greater than 2000 µg/mL. For the same compound, the “MIC Ampicillin” value (Staph. aureus Russell [6]; synergist concentration 0) was 500 µg/mL, the “MIC Ampicillin” value (Klebsiella aerogenes E70; synergist concentration 0) was 500 µg/mL and the MIC for ampicillin (Kleb. aerogenes E70 [8]) was 2000 µg/mL. The MIC for ampicillin (Staph. aureus Russell [9]) was greater than 500 µg/mL and the MIC for ampicillin (E. coli JT39 [10]) was 500 µg/mL.
